The source made the active and inactive calls. The calls are words filed in the database; no cut-off is given here.

The assay deals with L1210. In words: Antiproliferative activity against mouse L1210 cells assessed as growth inhibition at 50 uM. In kind it is functional.

As to `C=C1O[C@H](n2cnc3c(N)ncnc32)[C@@H](O)[C@@H]1O`, the inhibition result is “inactive”.
On the same count and under the same terms, with `C=C1O[C@H](n2cnc3c(N)ncnc32)[C@H](O)[C@H]1O` the entry was “inactive”; with `C=C1O[C@@H](n2cnc3c(N)ncnc32)[C@H](O)[C@H]1O`, “inactive”.
For the compound `C=C1C[C@@H](O)[C@H](n2cnc3c(N)ncnc32)O1`, the inhibition at 50 µM came out at 50%.
`C=C1O[C@@H](n2cnc3c(N)ncnc32)CC1O` (single isomer, unassigned): the inhibition result is “inactive”.

The inhibition is the change of the read-out against control, counted positive when it falls.

For the origin of these results see ChEMBL document CHEMBL3228014, “Preparation of the enantiomeric forms of 9-(5-deoxy-alpha-threo-pent-4-enofuranosyl)adenine and 9-(3,5-dideoxy-beta-D-glycero-pent-4-enofuranosyl)adenine and in vitro antileukemic screening” (1979).
